The text below walks through data of ChEMBL document CHEMBL1145849, “QSAR and the rational design of long-acting dual D2-receptor/beta 2-adrenoceptor agonists” (J Med Chem, 2003).

Series [1] is described as follows: physchem. The conditions noted are these: octanol/water, pH 7.4, logD.
Series [2] addresses Beta-2 adrenergic receptor (Cavia porcellus) (UniProt Q8K4Z4).
Description: In vitro beta-2 duration was determined using electrically stimulated guinea-pig isolated trachea superfusion system
Series [3] is described as follows: physchem.
Description: Ionization constant (pKa)
In series [4] the target is Beta-2 adrenergic receptor (Cavia porcellus) (UniProt Q8K4Z4). The conditions noted are these: Trachea.
Sequence of Beta-2 adrenergic receptor (Cavia porcellus) (Q8K4Z4 whole entry, looked up): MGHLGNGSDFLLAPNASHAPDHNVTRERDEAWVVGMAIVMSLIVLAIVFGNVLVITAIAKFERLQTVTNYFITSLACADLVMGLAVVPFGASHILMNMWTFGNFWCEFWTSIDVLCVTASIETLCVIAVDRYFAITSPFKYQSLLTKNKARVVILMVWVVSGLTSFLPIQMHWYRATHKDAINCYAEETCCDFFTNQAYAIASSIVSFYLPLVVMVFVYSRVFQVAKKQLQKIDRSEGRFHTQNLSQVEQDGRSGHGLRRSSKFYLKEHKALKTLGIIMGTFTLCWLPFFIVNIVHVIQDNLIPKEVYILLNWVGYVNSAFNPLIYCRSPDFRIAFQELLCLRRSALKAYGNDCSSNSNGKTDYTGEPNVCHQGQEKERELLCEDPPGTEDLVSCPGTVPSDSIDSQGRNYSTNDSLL
Description: Beta-2-adrenoceptor potency was determined in rings of guinea-pig isolated trachea

As a reminder, the logD is the decadic logarithm of the distribution of all forms, ionised or not, between an organic phase and buffer at a given pH. Lower therefore signals lower lipophilicity. The pKa is the pH at which an ionisable group is half protonated. Read a high pKa as a group that holds its proton tightly. The compound `CN(CCCNCCc1ccc(O)c2nc(O)sc12)S(=O)(=O)CCOCCc1ccccc1` displayed a logD in “physchem [1]” of 1.24. The compound further had a Beta2 duration in series [2] of 60 min. In “physchem [3]”, the pKa is > 8.
On the same counts, the results for `O=S(=O)(CCCNCCc1ccc(O)c2nc(O)sc12)NCCOCCc1cccc(C(F)(F)F)c1` are 2.62, > 180 min and > 8.
On the same counts, the results for `C[C@@H](COCCCS(=O)(=O)CCNCCc1ccc(O)c2nc(O)sc12)c1ccccc1` are 2.32, 60 min and < 8.
Turning to `O=S(=O)(CCCOCCc1ccc(F)cc1)CCNCCc1ccc(O)c2nc(O)sc12`, the Beta2 duration in series [2] is 67 min. Also, in “physchem [3]”, the pKa is < 8. In addition, the p[A]50 in series [4] is 7.92.
The compound `CSc1cccc(CCOCCS(=O)(=O)CCCNCCc2ccc(O)c3nc(O)sc23)c1` showed a logD in the series “physchem [1]” of 1.63. In series [2], the Beta2 duration was 150 min. In addition, in “physchem [3]”, the pKa is > 8.
The corresponding values for `Cc1ccc(CCOCCCS(=O)(=O)CCNCCc2ccc(O)c3nc(O)sc23)nc1` are 1.56, 40 min and < 8.
Consider `CN(CCc1ccc(O)c2nc(O)sc12)CCN(C)C(=O)CCOCCc1ccccc1`, for which the Beta2 duration in series [2] is > 180 min.
Consider `Cc1cc(C)cc(CCOCCS(=O)(=O)NCCNCCc2ccc(O)c3nc(O)sc23)c1`, for which the pH-dependent lipophilicity (logD) in the series “physchem [1]” amounted to 2.59. Also, the Beta2 duration in series [2] was > 180 min. Moreover, the pKa in the series “physchem [3]” is > 8.
Take `Cc1ccccc1CCOCCCS(=O)(=O)CCNCCc1ccc(O)c2nc(O)sc12`: the Beta2 duration in series [2] worked out at 160 min. For the same compound, the pKa in “physchem [3]” was < 8.
Regarding `CC(C)(CCCCOCCc1ccc(O)cc1)CNCCc1ccc(O)c2nc(O)sc12`, in series [2], the Beta2 duration was > 180 min. The pKa in “physchem [3]” is > 8. In series [4], this compound displayed a p[A]50 of 9.03.
Take `Cc1ncsc1CCOCCCS(=O)(=O)CCNCCc1ccc(O)c2nc(O)sc12`: in the series “physchem [1]”, the log distribution coefficient (logD) was determined as 1.44. In addition, the Beta2 duration in series [2] was found to be 40 min. The pKa in “physchem [3]” is < 8.
As to `COc1ccc(CCOCCCS(=O)(=O)CCNCCc2ccc(O)c3nc(O)sc23)cc1`, the Beta2 duration in series [2] came to 60 min. Moreover, the pKa in the series “physchem [3]” was < 8.
The compound `O=S(=O)(CCCOCCc1cc2ccccc2o1)CCNCCc1ccc(O)c2nc(O)sc12` gave a logD in “physchem [1]” of 2.86. In series [2], this compound had a Beta2 duration of 160 min. Moreover, the pKa in “physchem [3]” was < 8.
`CCCN(CCCOCCOCCc1ccccc1)CCc1ccc(O)c2nc(O)sc12`: the Beta2 duration in series [2] was > 180 min. Also, the pKa in the series “physchem [3]” was > 8.
`O=S(=O)(CCCNCCc1ccc(O)c2nc(O)sc12)NCCSCCc1ccccc1` registered a logD in “physchem [1]” of 1.77. In addition, the Beta2 duration in series [2] was 180 min. For the same compound, the pKa in the series “physchem [3]” was > 8.
With `Oc1nc2c(O)ccc(CCNCCCCCOCCc3ccccc3)c2s1`, in series [2], the Beta2 duration is > 180 min. In addition, the pKa in the series “physchem [3]” was > 8. Further, the p[A]50 in series [4] stood at 7.8.
`O=S(=O)(CCCOCCSc1ccccc1)CCNCCc1ccc(O)c2nc(O)sc12` showed a logD in the series “physchem [1]” of 2.68. Besides, in series [2], the Beta2 duration was determined as 120 min. In the series “physchem [3]”, the pKa is < 8.
For the compound `Oc1nc2c(O)ccc(CCNCCCSCCCOCCc3ccccc3)c2s1`, in series [2], the Beta2 duration is > 180 min. For the same compound, the pKa in the series “physchem [3]” is > 8. This compound also had a p[A]50 in series [4] of 7.32.
As to `CN(CCc1ccc(O)c2[nH]c(=O)sc12)CCN(C)C(=O)CCOCCc1ccccc1`, in “physchem [3]”, the pKa was > 8.
`O=S(=O)(CCCOCCc1nccc2ccccc12)CCNCCc1ccc(O)c2nc(O)sc12`: the logD in “physchem [1]” came out at 2.35. The compound also returned a Beta2 duration in series [2] of 50 min. The pKa in the series “physchem [3]” was < 8.
The corresponding values for `Cc1ccc(CCCOCCS(=O)(=O)CCCNCCc2ccc(O)c3nc(O)sc23)s1` are 2.41, > 180 min and > 8.
For the compound `CC(C)(CCCCOCCc1ccc(N)cc1)CNCCc1ccc(O)c2nc(O)sc12`, the Beta2 duration in series [2] is > 180 min. The pKa in “physchem [3]” is > 8. In series [4], the p[A]50 came out at 8.86.
Regarding `O=S(=O)(CCCOCCc1ccccc1)NCCNCCc1ccc(O)c2nc(O)sc12`, the logD in the series “physchem [1]” stood at 1.83. In series [2], this compound yielded a Beta2 duration of 180 min. Moreover, the pKa in “physchem [3]” is > 8.
The corresponding values for `O=S(=O)(CCCNCCc1ccc(O)c2nc(O)sc12)CCOCc1ccccc1` are 1.15, 60 min and > 8.
Take `CC(C)(CCCCCOCCc1ccccc1)NCCc1ccc(O)c2nc(O)sc12`: the Beta2 duration in series [2] is > 180 min. Moreover, the pKa in “physchem [3]” is > 8. This compound also showed a p[A]50 in series [4] of 8.42.
Turning to `Cc1ccc(CCOCCNS(=O)(=O)CCCNCCc2ccc(O)c3nc(O)sc23)cc1`, the log distribution coefficient (logD) in “physchem [1]” came out at 2.07. Also, the Beta2 duration in series [2] is > 180 min. Also, the pKa in “physchem [3]” is > 8.
In series [2], `O=S(=O)(CCCNCCc1ccc(O)c2nc(O)sc12)CCNCCc1ccccc1` returned a Beta2 duration of 18 min. The pKa in “physchem [3]” is > 8. In series [4], this compound yielded a p[A]50 of 7.88.
In the series “physchem [1]”, `O=S(=O)(CCOCc1cccc2ccccc12)NCCCNCCc1ccc(O)c2nc(O)sc12` displayed a log distribution coefficient (logD) of 1.69. In series [2], this compound came in with a Beta2 duration of 180 min. Besides, the pKa in “physchem [3]” was > 8.
`CCN(CCCOCCOCCc1ccccc1)CCc1ccc(O)c2nc(O)sc12`: in series [2], the Beta2 duration is > 180 min. For the same compound, in the series “physchem [3]”, the pKa is > 8.
As for `CN(CCCOCCOCCc1ccccc1)CCc1ccc(O)c2nc(O)sc12`, the Beta2 duration in series [2] is > 180 min. The pKa in the series “physchem [3]” is > 8.
With `Cc1cc(C)cc(CCOCNS(=O)(=O)CCCNCCc2ccc(O)c3nc(O)sc23)c1`, the Beta2 duration in series [2] was > 180 min. Further, in the series “physchem [3]”, the pKa was > 8.
As to `N#Cc1ccc(CCOCCCS(=O)(=O)CCNCCc2ccc(O)c3nc(O)sc23)cc1`, the pH-dependent lipophilicity (logD) in “physchem [1]” came out at 2. For the same compound, the Beta2 duration in series [2] came out at 40 min. For the same compound, the pKa in “physchem [3]” was < 8.
In the case of `CN(CCNCCc1ccc(O)c2nc(O)sc12)C(=O)CCOCCc1ccccc1`, in series [2], the Beta2 duration is 116 min. The p[A]50 in series [4] is 8.29.
Compound `O=S(=O)(CCCNCCc1ccc(O)c2nc(O)sc12)NCCOCCc1cccc(Cl)c1` showed a logD in “physchem [1]” of 1.92. This compound gave a Beta2 duration in series [2] of 180 min. For the same compound, the pKa in “physchem [3]” is > 8.
On the same counts, the results for `O=S(=O)(CCOCCCc1ccccc1)NCCNCCc1ccc(O)c2nc(O)sc12` are 2.22, > 180 min and > 8.
On the same counts, the results for `CS(=O)(=O)Nc1ccc(CCOCCCS(=O)(=O)CCNCCc2ccc(O)c3nc(O)sc23)cc1` are 1.34, 40 min and < 8.
The corresponding values for `O=S(=O)(CCCNCCc1ccc(O)c2nc(O)sc12)NCCOCCc1ccc(F)cc1` are 1.57, 150 min and > 8.
In turn, `CN(CCNCCc1ccc(O)c2[nH]c(=O)sc12)C(=O)CCOCCc1ccccc1` yielded a logD in “physchem [1]” of 1.52. Besides, the pKa in “physchem [3]” was > 8.
`O=S(=O)(CCCOCCNc1ccccc1)CCNCCc1ccc(O)c2nc(O)sc12`: in series [2], the Beta2 duration is 40 min. In “physchem [3]”, the pKa is < 8.
Regarding `O=S(=O)(CCCNCCc1ccc(O)c2nc(O)sc12)NCCOCCSc1ccccc1`, the logD in the series “physchem [1]” came to 1.84. In addition, the Beta2 duration in series [2] is 180 min. Moreover, in “physchem [3]”, the pKa is > 8.
On the same counts, the results for `C[C@@H](Cc1ccccc1)OCCCS(=O)(=O)CCNCCc1ccc(O)c2nc(O)sc12` are 1.81, 180 min and > 8.
